Reference: PubChem BioAssay (NCI)
“And” between values parts separate entries of the source, which are not always exact repeats. Identical values can stand only once.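 Test compounds were applied to cells in 96-well plates for 48 hours at 5 doses. Here, GI50 denotes the concentration required for 50% inhibition of growth. TGI marks complete inhibition of growth.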

How the values were obtained:
Experiment in all cases: growth of human tumour cells (NCI), 48 h
UO-31 renal = tested on: UO-31 renal
TK-10 renal = tested on: TK-10 renal
UACC-62 melanoma = tested on: UACC-62 melanoma
T-47D breast = tested on: T-47D breast
HS 578T breast = tested on: HS 578T breast
CCRF-CEM leukemia = tested on: CCRF-CEM leukemia
DU-145 prostate = tested on: DU-145 prostate
SK-MEL-28 melanoma = tested on: SK-MEL-28 melanoma
SR leukemia = tested on: SR leukemia
K-562 leukemia = tested on: K-562 leukemia

SMILES	TGI (UO-31 renal)	TGI (TK-10 renal)	TGI (UACC-62 melanoma)	TGI (T-47D breast)	TGI (HS 578T breast)	TGI (CCRF-CEM leukemia)	TGI (DU-145 prostate)	TGI (SK-MEL-28 melanoma)	TGI (SR leukemia)	TGI (K-562 leukemia)	GI50 (UO-31 renal)	GI50 (TK-10 renal)	GI50 (UACC-62 melanoma)	GI50 (T-47D breast)	GI50 (HS 578T breast)	GI50 (CCRF-CEM leukemia)	GI50 (DU-145 prostate)	GI50 (SK-MEL-28 melanoma)	GI50 (SR leukemia)	GI50 (K-562 leukemia)
OCC1OC2OC3C(CO)OC(OC4C(CO)OC(OC5C(CO)OC(OC6C(CO)OC(OC7C(CO)OC(OC1C(O)C2O)C(O)C7O)C(O)C6O)C(O)C5O)C(O)C4O)C(O)C3O (stereo unspecified) (tested in a mixture with another compound)	> 100 µM	> 100 µM	> 100 µM	> 100 µM	> 100 µM	> 100 µM	> 100 µM	> 100 µM	34.3 µM	> 100 µM	–	–	–	–	–	–	–	–	–	–
CC(C)NC(=O)OCc1c(COC(=O)NC(C)C)c(-c2ccc(Cl)c(Cl)c2)n2c1CCC2	63.5 µM	88.2 µM	53.9 µM	> 56.2 µM	> 100 µM	44.6 µM	> 100 µM	75.1 µM	36.3 µM	77.1 µM	–	–	–	–	–	–	–	–	–	–
COc1ccc2c(c1)/C(=C\c1c(Cl)n(C)c3ccccc13)C(=O)N2	20.6 µM	34.2 µM	5.34 µM	31.4 µM	8.12 µM	> 100 µM	15 µM	> 55.4 µM	0.605 µM	> 100 µM	3.71 µM	9.26 µM	0.255 µM	3.02 µM	1.44 µM	3.53 µM	3.07 µM	13.5 µM	0.157 µM	3.71 µM
COc1ccc(OC)c(/C=C2\COc3ccc(O)c(O)c3C2=O)c1	2.6 µM	14.3 µM	4.51 µM	15.2 µM	36.8 µM	34.4 µM	7.28 µM	7.51 µM	> 100 µM	> 100 µM	1.22 µM	4 µM	1.79 µM	2.64 µM	5.3 µM	0.679 µM	2.27 µM	2.65 µM	1.36 µM	2.17 µM
O=C(O)c1c[nH]c2c(OCc3ccccc3)c3ccccc3c(O)c2c1=O	> 100 µM	43.4 µM	13.3 µM	73.8 µM	70.1 µM	34.7 µM	37.2 µM	36.9 µM	59.6 µM	> 100 µM	20 µM	22.8 µM	3.97 µM	21.5 µM	33.2 µM	10 µM	21.1 µM	19.3 µM	28.3 µM	3.2 µM
Cc1[nH]nc2ccc3nc(-c4ccc5[nH]ncc5c4)c4c(c3c12)CCCC4	5.99 µM	20 µM	6.13 µM	8.22 µM	12.5 µM	> 100 µM	12.2 µM	9.54 µM	25.7 µM	> 100 µM	0.802 µM	1.12 µM	0.717 µM	1.14 µM	1.34 µM	2.13 µM	1.05 µM	2.09 µM	0.525 µM	1.7 µM
Cc1ccc(-c2nc(N)c(C#N)c3c2CCOc2c-3ccc3ccccc23)cc1	> 100 µM	13.6 µM	> 100 µM	45.9 µM	1.51 µM	1.36 µM	17.2 µM	> 100 µM	> 100 µM	> 40.8 µM	4.14 µM	0.469 µM	0.935 µM	0.954 µM	0.227 µM	0.224 µM	2.04 µM	2.48 µM	0.0882 µM	0.0614 µM
O=C(Nc1ccc(OCc2nnc(-c3ccccc3)o2)c(F)c1)Nc1ccc(Cl)c(C(F)(F)F)c1	2.93 µM	8.24 µM	6.91 µM	7.15 µM	7.09 µM	10.6 µM	3.53 µM	> 100 µM	4.31 µM	8.79 µM	1.49 µM	2.62 µM	2.48 µM	2.31 µM	2 µM	2.38 µM	1.8 µM	3.08 µM	1.37 µM	2.07 µM
Cc1nn(-c2ccccc2)c2nc3c(nc12)C1=NCCN1C(c1ccc(Cl)cc1)N3 (stereo unspecified)	21.5 µM	7.18 µM	3.8 µM	3.42 µM	12.8 µM	7.85 µM	17.9 µM	3.37 µM	6.32 µM	6.19 µM	7.84 µM	2.93 µM	1.95 µM	1.74 µM	3.1 µM	2.69 µM	5.9 µM	1.78 µM	2.48 µM	2.42 µM
COc1cccc(Cn2c(-c3nonc3NC(C)=O)nc3ccccc32)c1	> 100 µM	40.8 µM	> 100 µM	> 100 µM	7.24 µM	> 100 µM	83.9 µM	> 100 µM	> 100 µM	> 100 µM	3.72 µM	2.65 µM	3.37 µM	6.17 µM	1.87 µM	> 100 µM	3.42 µM	6.17 µM	4.14 µM	4.02 µM
CC1(C)N=C(N)N=C(N)N1c1cccc(CCCCOc2ccccc2)c1	> 100 µM	62.6 µM	13.7 µM	30.1 µM	37.3 µM	32.7 µM	> 100 µM	20.6 µM	20.7 µM	> 100 µM	47.2 µM	0.197 µM	0.0467 µM	1.62 µM	10.2 µM	0.0414 µM	0.0626 µM	0.521 µM	< 0.011 µM	0.05 µM
OCC1OC(n2cnc3c2NC=NC[C@H]3O)CC1O (stereo partly specified)	500 µM and > 588 µM	> 500 µM	461 µM and > 588 µM	281 µM	> 500 µM	492 µM and > 588 µM	500 µM	500 µM and > 588 µM	443 µM	474 µM and > 588 µM	> 588 µM	–	> 588 µM	–	–	> 588 µM	–	> 588 µM	–	> 588 µM
O=C(CN1C(=O)S/C(=C\C(Cl)=C\c2ccccc2)C1=O)NCCc1ccc(O)cc1	3.31 µM	5.02 µM	3.96 µM	8.65 µM	7.97 µM	> 100 µM	3.55 µM	3.44 µM	> 100 µM	> 100 µM	1.64 µM	2.42 µM	1.7 µM	2.47 µM	2.72 µM	2.16 µM	1.72 µM	1.73 µM	0.955 µM	2.28 µM
N#C/C(=C1C=C/C(=N\O)C(Cl)=C\1)c1ccccc1	17.1 µM	16.4 µM	18.1 µM	11.3 µM	38.5 µM	2.37 µM	9.47 µM	21.8 µM	11.3 µM	13.5 µM	1.74 µM	5.12 µM	2.8 µM	0.6 µM	3.58 µM	0.37 µM	3.32 µM	6.77 µM	1.8 µM	2.27 µM
O=C(O)CP(=O)(O)O	> 100 µM	> 100 µM	> 100 µM	> 100 µM	> 100 µM	> 100 µM	> 100 µM	> 100 µM	> 100 µM	> 100 µM	–	–	–	–	–	–	–	–	–	–
N=c1n(Cc2ccccc2)c(N)cc(=O)n1Cc1ccccc1	5.37 µM	7.47 µM	12 µM	12.4 µM	–	8.65 µM	6.47 µM	11.7 µM	7.53 µM	> 100 µM	2.35 µM	2.22 µM	3.55 µM	3.01 µM	1.04 µM	1.63 µM	2.28 µM	3.58 µM	2.28 µM	3.82 µM
O=S(=O)(CCNCc1ccc(-c2ccc3ncnc(Nc4ccc(OCc5cccc(F)c5)c(Cl)c4)c3c2)o1)c1ccccc1	> 25 µM	> 25 µM	> 25 µM	> 25 µM	> 25 µM	> 25 µM	> 25 µM	> 25 µM	> 25 µM	> 25 µM	9.06 µM	> 13.2 µM	> 25 µM	2.21 µM	> 25 µM	> 23.1 µM	> 25 µM	> 25 µM	> 25 µM	> 25 µM
Clc1ccc(C2=NN[C@H](c3cn(-c4ccccc4)nc3-c3ccccc3)C2)cc1	> 100 µM	18.6 µM	28.4 µM	18.8 µM	15.9 µM	45.3 µM	28.2 µM	6.69 µM	> 100 µM	> 100 µM	12.8 µM	5.87 µM	7.06 µM	3.91 µM	3.46 µM	8.23 µM	6.47 µM	2.65 µM	11.4 µM	4.8 µM
CSc1nc(C)c(Br)c(=O)n1C1OC(COC(C)=O)C(OC(C)=O)C(OC(C)=O)C1OC(C)=O (stereo unspecified)	> 100 µM	> 100 µM and 55.9 µM	> 100 µM and 44.1 µM	> 100 µM	> 100 µM	> 100 µM	> 100 µM	> 100 µM and 57 µM	> 100 µM	> 100 µM	> 100 µM and 44.9 µM	43.1 µM and 20.6 µM	97 µM and 23.3 µM	–	–	–	–	> 100 µM and 21 µM	–	–
S=C(c1ccc2c(c1)OCO2)N1CCN(c2cccc(Cl)c2)CC1	> 72.5 µM	> 100 µM	> 100 µM	> 100 µM	3.54 µM	> 21.9 µM	> 55.1 µM	> 100 µM	–	> 41.8 µM	4.3 µM	4.55 µM	0.429 µM	7.31 µM	0.391 µM	1.01 µM	2.16 µM	1.02 µM	0.382 µM	0.318 µM
Brc1ccccc1C=NC12CC3CC(CC(C3)C1)C2	> 100 µM	> 100 µM	> 100 µM	> 100 µM	> 100 µM	> 100 µM	> 100 µM	> 100 µM	> 28.2 µM	> 100 µM	–	–	–	–	–	–	–	–	–	–
Cc1ccc(NC2=C(Cl)C(=O)N(Cc3ccccc3)C2=O)cc1Cl	15.9 µM	24.3 µM	16.8 µM	25.3 µM	33.9 µM	19.4 µM	27.8 µM	29.3 µM	5.75 µM	25.8 µM	3.33 µM	9.13 µM	3.85 µM	4.3 µM	10.6 µM	4.23 µM	14.4 µM	12.9 µM	1.19 µM	3.69 µM
CC(=O)OC1Oc2cc(C)c(C)cc2-c2oc(=O)c(-c3ccc(F)cc3)cc21 (stereo unspecified)	> 100 µM	71.4 µM	76.3 µM	17.1 µM	68.6 µM	21.4 µM	77.7 µM	45.7 µM	5.22 µM	12.3 µM	4.92 µM	17.1 µM	3.92 µM	2.43 µM	8.56 µM	3.61 µM	10.3 µM	6.89 µM	1.21 µM	3.01 µM
O=C1CCC(N2Cc3c(C#CCCCNC(=O)c4cc5c(o4)C(=O)c4ccccc4C5=O)cccc3C2=O)C(=O)N1 (stereo unspecified)	36.1 µM	50.2 µM	3.65 µM	11.9 µM	5.64 µM	55.4 µM	3.28 µM	8.83 µM	14.5 µM	16.6 µM	14 µM	33.1 µM	1.87 µM	3.16 µM	2.39 µM	4.42 µM	1.82 µM	3.53 µM	3.15 µM	3.11 µM
C/C(=C\CCc1ccsc1)CC/C=C(\C)CCCN1CCC(CO)CC1	16 µM	3.29 µM	3.64 µM	6.03 µM	6.19 µM	4.8 µM	16.1 µM	3.38 µM	4.4 µM	3.41 µM	2.83 µM	1.76 µM	1.81 µM	2.22 µM	2 µM	2.09 µM	4.69 µM	1.69 µM	1.81 µM	1.28 µM
Cn1ccnc1C(=O)/C=C/c1ccc(CC(=O)Nc2ccc(F)cc2)cc1	5.16 µM	> 25 µM	7.75 µM	> 25 µM	> 25 µM	> 25 µM	5.97 µM	9.95 µM	> 25 µM	> 25 µM	1.72 µM	10.5 µM	3.51 µM	8.34 µM	15 µM	2 µM	1.24 µM	4.47 µM	0.517 µM	0.823 µM
CCCCCCCCCCCCCCCCCC(=O)OCC(COC1OC(CS(=O)(=O)O)C(O)C(O)C1O)OC(=O)CCCCCCCCCCCCCCCCC (stereo unspecified)	–	> 100 µM	> 100 µM	> 100 µM	> 100 µM	> 100 µM	> 100 µM	> 100 µM	4.42 µM	> 100 µM	–	–	–	–	–	–	–	–	–	–
